Assay results as given in paper PMC5918173, “Characterization of Transglutaminase 2 activity inhibitors in monocytes in vitro and their effect in a mouse model for multiple sclerosis” (PLoS ONE, 2018).

What was measured:
[1] = proposed; reference not given; cited from earlier work
[2] = tested on: inflammatory mediator mRNA in spinal cord; assay: qPCR of inflammation-related genes in spinal cord of EAE mice; type: in vivo, mouse; settings: normalized to GAPDH
Description: Total RNA from snap frozen spinal cord (pooled cervical, thoracic and lumbar region) was isolated using Trizol (Invitrogen) according to the manufacturer’s protocol. RNA concentration and purity was determined with a NanoDrop 2000 spectrophotometer (Thermo Fisher Scientific). Purity was accepted with a 260/230 nm absorbance ratio of 2.00–2.20 and a 260/280 ratio of 1.90.-2.00. For reverse transcription into cDNA, 1 μg of RNA was used with the High-Capacity cDNA Reverse Transcription kit (Life Technologies), using 50 pmol oligo-dT16 primers, according to the manufacturer’s instructions. For quantitative real-time PCR (qPCR), Power SYBR Green Master Mix (Applied Biosystems) was used according to manufacturer’s protocol. Intron-spanning primers (Table 2) were designed with Primer-BLAST [29], purchased from Eurogentec and used at 3.75 pmol per 12.5 ng cDNA in each reaction. Subsequently, qPCR was performed according to the previously published MIQE guidelines. The qPCR reaction was performed in a total volume of 20 μl in MicroAmp Optical 96-well Reaction Plates on a StepOnePlus Real-Time PCR system (Applied Biosystems). The thermal cycling conditions were an initial 10 min at 95°C followed by 50 cycles of 15 s at 95°C and 1 min at 60°C. The reaction specificity was verified by a melt curve analysis. The relative expression level of the target genes was determined by the LinRegPCR software (http://www.hfrc.nl, downloads, applications, lin reg PCR, version 2017) using the following calculation N0 = Nq/ECq (N0 = target quantity, Nq = fluorescence threshold value, E = mean PCR efficiency per amplicon, Cq = threshold cycle. The obtained values were normalized to glyceraldehyde-3-phosphate-dehydrogenase expression (GAPDH).

O=C(NCC1CC(Br)=NO1)C1CCCN1C(=O)OCc1cnc2ccccc2c1 (stereo not drawn) [ERW1041E, 2-[(3-Bromo-4,5-dihydro-isoxazol-5-ylmethyl)-carbamoyl]-pyrrolidine-1—carboxylic acid quinolin-3-ylmethyl ester]
inhibitory in vivo half-life [1]: 12 h | IL-1ra mRNA level in spinal cord versus vehicle ([2]; Fig 7a): not significantly changed | IL-1β mRNA level in spinal cord versus vehicle ([2]; Fig 7b): not significantly changed | IFNγ mRNA level in spinal cord versus vehicle ([2]; Fig 7c): not significantly changed | iNOS mRNA level in spinal cord versus vehicle ([2]; Fig 7e): slightly but not significantly enhanced | TNFα mRNA level in spinal cord versus vehicle ([2]; Fig 7d): slightly but not significantly enhanced
